Measurements reported in patent US8518890B2, “Remedies for sex hormone dependent disease” (Takeda Pharmaceutical Company Limited, priority 2002, dated 2013).

How the values were obtained:
Experiment in all cases: Effect on cell growth in the presence of androgen (cell count)
Assay type in all cases: cell-based
[1] = tested on: MDA PCa 2b-hr cells (highly androgen sensitive cell line); details: MDA PCa 2b-hr (cultured 61 weeks in androgen-free broth), 0.1 to 100 ng/mL testosterone, cells counted 4 days after addition, FIG. 2
[2] = tested on: LNCaP-FGC cells; details: 0.01 to 10 ng/mL testosterone, cells counted 3 days after addition, FIG. 1
Method: (§1) (Method) LNCaP-hr (cultured for 60 weeks in culture broth free of androgen) and LNCaP-FGC cells were plated on a 24 well plate at 40000 cells/mL/well, 0.01 to 10 ng/mL of testosterone was added the next day, and the cells were counted 3 days after the addition. In addition, MDA PCa 2b-hr (cultured for 61 weeks in culture broth free of androgen) and MDA PCa 2b cells were plated on a 24 well plate at 40000 cells/mL/well, 0.1 to 100 ng/mL of testosterone was added the next day, and the cells were counted 4 days after the addition. (Results) The growth of LNCaP-FGC and MDA PCa 2b was promoted by testosterone [FIGS. 1 and 2]. In contrast, the growth of LNCaP-hr and MDA PCa 2b-hr cells were suppressed by testosterone [FIGS. 1 and 2].

[3] = tested on: MDA PCa 2b cells; details: 0.1 to 100 ng/mL testosterone, cells counted 4 days after addition, FIG. 2
Method: as §1

[4] = tested on: LNCaP-hr cells (highly androgen sensitive cell line); details: LNCaP-hr (cultured 60 weeks in androgen-free broth), 0.01 to 10 ng/mL testosterone, cells counted 3 days after addition, FIG. 1

How did the cell growth [1] turn out when `C[C@]12CC[C@H]3[C@@H](CCC4=CC(=O)CC[C@@]43C)[C@@H]1CC[C@@H]2O` [testosterone] was run?
Its cell growth is “suppressed”.

What about the cell growth [2] of the same compound?
The cell growth was “promoted”.

What about the cell growth [3] of the same compound?
Its cell growth is “promoted”.

And the cell growth [4]?
The cell growth was “suppressed”.
